Measurements: PubChem BioAssay (NCI)
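Method: 48-hour compound exposure of cells in 96-well plates, five concentrations, linear interpolation of endpoints. GI50 marks 50% less growth. The concentration for full growth arrest is given as TGI.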

Experiments:
Assay in all cases: NCI tumour cell line growth inhibition, 48 h
NCI-H522 lung = tested on: NCI-H522 lung
A498 renal = tested on: A498 renal
U251 CNS = tested on: U251 CNS
SK-MEL-5 melanoma = tested on: SK-MEL-5 melanoma
NCI-H460 lung = tested on: NCI-H460 lung
SK-MEL-28 melanoma = tested on: SK-MEL-28 melanoma
SNB-75 CNS = tested on: SNB-75 CNS
LXFL 529 NSCLC = tested on: LXFL 529 NSCLC
DLD-1 colon = tested on: DLD-1 colon
NCI/ADR-RES ovarian = tested on: NCI/ADR-RES ovarian

Row | SMILES | GI50 (NCI-H522 lung) | TGI (NCI-H522 lung) | GI50 (A498 renal) | TGI (A498 renal) | GI50 (U251 CNS) | TGI (U251 CNS) | GI50 (SK-MEL-5 melanoma) | TGI (SK-MEL-5 melanoma) | GI50 (NCI-H460 lung) | TGI (NCI-H460 lung) | GI50 (SK-MEL-28 melanoma) | TGI (SK-MEL-28 melanoma) | GI50 (SNB-75 CNS) | TGI (SNB-75 CNS) | GI50 (LXFL 529 NSCLC) | TGI (LXFL 529 NSCLC) | GI50 (DLD-1 colon) | TGI (DLD-1 colon) | TGI (NCI/ADR-RES ovarian)
1 | CC(=O)[CH-]C(=O)c1ccccc1.CC(=O)[CH-]C(=O)c1ccccc1.CC(=O)[CH-]C(=O)c1ccccc1.[Tl+3] | > 54.7 µM | > 100 µM | > 100 µM | > 100 µM | 42.6 µM | > 100 µM | 24.4 µM | > 66.8 µM | 22.6 µM | > 100 µM | 74.3 µM | > 100 µM | 48.1 µM | > 100 µM | 56.2 µM | > 100 µM | 22.2 µM | > 100 µM | 
2 | S=c1nc(Oc2ccc(Cl)c(Cl)c2)[nH]c(=S)[nH]1 |  | 38.2 µM |  | 77.6 µM |  | 99.4 µM |  | > 55.6 µM |  | 64.9 µM |  | > 92.5 µM |  | > 84.5 µM |  | > 100 µM |  | 88.4 µM | > 100 µM
3 | COC1/C=C\C=C(/C)C(=O)Nc2cc3nc4ccc(Br)cc4oc-3c(c2=O)CC(C)CC(OC)C(O)C(C)/C=C(\C)C1OC(N)=O (centres undefined) | 0.00141 µM | 0.142 µM |  | 30.9 µM |  | 28.7 µM |  | 9.44 µM | 0.00446 µM | 17.9 µM | 0.000391 µM |  |  | 23.8 µM |  | 9.42 µM |  | 8.29 µM | 
4 | C1CNCCNCCNCCN1 |  | > 100 µM |  | > 100 µM |  | 81.5 µM |  | > 100 µM |  | > 100 µM |  | > 100 µM |  | > 100 µM |  | > 100 µM |  | > 100 µM | 
5 | O=C1CCCCCCCCCCC(=O)C2CCOCCOCCOCCC1Cc1cccc(n1)C2 |  | > 100 µM |  | > 100 µM |  | > 100 µM |  | > 100 µM |  | > 100 µM |  | > 100 µM |  | > 100 µM |  | > 100 µM |  | > 100 µM | 
6 | OCC(O)C(O)C(O)C1SC(c2ccccc2)=NN1c1ccccc1 (centres undefined) |  | 75.4 µM |  | > 100 µM |  | > 100 µM |  | > 100 µM |  | > 100 µM |  | > 100 µM |  | 35.5 µM |  | > 100 µM |  | > 100 µM | > 100 µM
7 | N/N=C(\CC1OC(=O)c2ccccc21)c1ccco1 (centres undefined) |  | > 100 µM |  | > 100 µM |  |  |  | > 100 µM |  | > 100 µM |  | > 100 µM |  | > 100 µM |  | > 100 µM |  | > 100 µM | 
8 | Cc1cccc(C)c1NC(=O)CCCC(=O)CC(=O)/C=C/c1ccccc1 |  | > 100 µM |  | > 100 µM |  | > 100 µM |  | > 100 µM |  | > 100 µM |  | > 100 µM |  | > 100 µM |  | > 100 µM |  | > 100 µM | 
